Test results published in ChEMBL document CHEMBL1201862, “PubChem BioAssay data set” (2004).
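Briefly, cells in 96-well plates were exposed to five compound concentrations for 48 h, and endpoints were estimated by linear interpolation. Here, GI50 denotes the concentration required for 50% inhibition of growth.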 Activity calls are given as the source filed them. Rule as the data show it: active = GI50 up to about 1.1 µM and inactive = higher.

Columns and labels:
Experiment in all cases: NCI anticancer screen, dose series, 48 h
786-0 = test system: 786-0
A498 = test system: A498
A549 = test system: A549
ACHN = test system: ACHN
BT-549 = test system: BT-549
CAKI-1 = test system: CAKI-1
CCRF-CEM = test system: CCRF-CEM
COLO 205 = test system: COLO 205
DU-145 = test system: DU-145
EKVX = test system: EKVX
HCC 2998 = test system: HCC 2998
HCT-116 = test system: HCT-116
HCT-15 = test system: HCT-15
HL-60 = test system: HL-60
HOP-62 = test system: HOP-62
HT-29 = test system: HT-29
Hs-578T = test system: Hs-578T
IGROV-1 = test system: IGROV-1
K562 = test system: K562
KM12 = test system: KM12
LOX IMVI = test system: LOX IMVI
MCF7 = test system: MCF7
MDA-MB-231 = test system: MDA-MB-231
MDA-MB-435 = test system: MDA-MB-435
MDA-N = test system: MDA-N
MOLT-4 = test system: MOLT-4
Malme-3M = test system: Malme-3M
NCI-H226 = test system: NCI-H226
NCI-H23 = test system: NCI-H23
NCI-H460 = test system: NCI-H460
NCI-H522 = test system: NCI-H522
NCI/ADR-RES = test system: NCI/ADR-RES
OVCAR-3 = test system: OVCAR-3
OVCAR-5 = test system: OVCAR-5
OVCAR-8 = test system: OVCAR-8
PC-3 = test system: PC-3
RPMI-8226 = test system: RPMI-8226
RXF 393 = test system: RXF 393
SF-268 = test system: SF-268
SF-295 = test system: SF-295
SF-539 = test system: SF-539
SK-MEL-5 = test system: SK-MEL-5
SN12C = test system: SN12C
SNB-19 = test system: SNB-19
SR = test system: SR
SW-620 = test system: SW-620
U-251 = test system: U-251
UACC-257 = test system: UACC-257
UO-31 = test system: UO-31
HOP-92 = test system: HOP-92
M14 = test system: M14
OVCAR-4 = test system: OVCAR-4
SK-MEL-28 = test system: SK-MEL-28
SK-MEL-2 = test system: SK-MEL-2
SK-OV-3 = test system: SK-OV-3
SNB-75 = test system: SNB-75
T47D = test system: T47D
TK-10 = test system: TK-10
UACC-62 = test system: UACC-62

COc1cc(C2c3cc4c(cc3OC(C)(O)C2C)OCO4)cc(OC)c1OC (stereo not drawn)
GI50 (786-0): 0.708 µM (active)
GI50 (A498): 13.9 µM (inactive)
GI50 (A549): 0.197 µM (active)
GI50 (ACHN): 0.938 µM (active)
GI50 (BT-549): 5.42 µM (inactive)
GI50 (CAKI-1): 12.2 µM (inactive)
GI50 (CCRF-CEM): 0.406 µM (active)
GI50 (COLO 205): 0.49 µM (active)
GI50 (DU-145): 0.456 µM (active)
GI50 (EKVX): 28.6 µM (inactive)
GI50 (HCC 2998): 646 nM (active)
GI50 (HCT-116): 0.333 µM (active)
GI50 (HCT-15): 400 nM
GI50 (HL-60): 0.182 µM (active)
GI50 (HOP-62): 0.335 µM (active)
GI50 (HT-29): 0.344 µM (active)
GI50 (Hs-578T): 0.449 µM (active)
GI50 (IGROV-1): 0.625 µM (active)
GI50 (K562): 0.274 µM (active)
GI50 (KM12): 0.697 µM (active)
GI50 (LOX IMVI): 0.692 µM (active)
GI50 (MCF7): 0.375 µM (active)
GI50 (MDA-MB-231): 433 nM (active)
GI50 (MDA-MB-435): 0.118 µM (active)
GI50 (MDA-N): 0.0555 µM (active)
GI50 (MOLT-4): 0.513 µM (active)
GI50 (Malme-3M): 0.407 µM (active)
GI50 (NCI-H226): 1.31 µM (inactive)
GI50 (NCI-H23): 0.745 µM (active)
GI50 (NCI-H460): 0.406 µM (active)
GI50 (NCI-H522): 0.235 µM (active)
GI50 (NCI/ADR-RES): 0.316 µM (active)
GI50 (OVCAR-3): 0.316 µM (active)
GI50 (OVCAR-5): > 100 µM (inactive)
GI50 (OVCAR-8): 0.217 µM (active)
GI50 (PC-3): 0.306 µM (active)
GI50 (RPMI-8226): 0.237 µM (active)
GI50 (RXF 393): 211 nM (active)
GI50 (SF-268): 2.69 µM (inactive)
GI50 (SF-295): 0.304 µM (active)
GI50 (SF-539): 277 nM (active)
GI50 (SK-MEL-5): 0.154 µM (active)
GI50 (SN12C): 0.505 µM (active)
GI50 (SNB-19): 0.342 µM (active)
GI50 (SR): 0.379 µM (active)
GI50 (SW-620): 0.349 µM (active)
GI50 (U-251): 0.443 µM (active)
GI50 (UACC-257): 65.2 µM (inactive)
GI50 (UO-31): 0.857 µM (active)

c1ccc(/N=C(/Nc2ccccc2)N2CCCCC2)cc1
GI50 (786-0): > 100 µM (inactive)
GI50 (A549): > 100 µM (inactive)
GI50 (ACHN): > 100 µM (inactive)
GI50 (BT-549): > 100 µM (inactive)
GI50 (CAKI-1): > 100 µM (inactive)
GI50 (CCRF-CEM): > 100 µM (inactive)
GI50 (COLO 205): 59 µM (inactive)
GI50 (DU-145): > 10 µM (inactive)
GI50 (EKVX): > 100 µM (inactive)
GI50 (HCT-116): 38.6 µM (inactive)
GI50 (HCT-15): > 100000 nM
GI50 (HL-60): 24.7 µM (inactive)
GI50 (HOP-62): > 100 µM (inactive)
GI50 (HOP-92): 92 µM (inactive)
GI50 (HT-29): 39.6 µM (inactive)
GI50 (Hs-578T): 18.7 µM (inactive)
GI50 (IGROV-1): 93.5 µM (inactive)
GI50 (K562): 40 µM (inactive)
GI50 (KM12): 72.1 µM (inactive)
GI50 (LOX IMVI): 40.3 µM (inactive)
GI50 (M14): 22.3 µM (inactive)
GI50 (MCF7): 68.7 µM (inactive)
GI50 (MDA-MB-435): 41.6 µM (inactive)
GI50 (MDA-N): 43.3 µM (inactive)
GI50 (MOLT-4): 51.5 µM (inactive)
GI50 (Malme-3M): 50.2 µM (inactive)
GI50 (NCI-H226): > 100 µM (inactive)
GI50 (NCI-H23): > 100 µM (inactive)
GI50 (NCI-H460): 73.3 µM (inactive)
GI50 (NCI-H522): 67.3 µM (inactive)
GI50 (NCI/ADR-RES): > 100 µM (inactive)
GI50 (OVCAR-3): > 100 µM (inactive)
GI50 (OVCAR-4): > 100 µM (inactive)
GI50 (OVCAR-5): > 100 µM (inactive)
GI50 (OVCAR-8): > 100 µM (inactive)
GI50 (PC-3): 80.2 µM (inactive)
GI50 (RPMI-8226): 97.9 µM (inactive)
GI50 (SF-268): > 100 µM (inactive)
GI50 (SF-295): 54.7 µM (inactive)
GI50 (SK-MEL-28): 74 µM (inactive)
GI50 (SK-MEL-2): > 100 µM (inactive)
GI50 (SK-MEL-5): > 10 µM (inactive)
GI50 (SK-OV-3): 74.1 µM (inactive)
GI50 (SN12C): > 100 µM (inactive)
GI50 (SNB-19): > 100 µM (inactive)
GI50 (SNB-75): 16.7 µM (inactive)
GI50 (SR): 73.6 µM (inactive)
GI50 (SW-620): > 100 µM (inactive)
GI50 (T47D): > 100 µM (inactive)
GI50 (TK-10): > 100 µM (inactive)
GI50 (U-251): > 100 µM (inactive)
GI50 (UACC-257): 21.6 µM (inactive)
GI50 (UACC-62): 77.4 µM (inactive)
GI50 (UO-31): 49.3 µM (inactive)
